In patent JP2012067022A, “ホスホマイシンを有効成分とする魚類のエドワジエラ症治療剤” (Meiji Seika Kaisha Ltd, priority 2010, dated 2012):

How the values were obtained:
[1] = tested on: Edwardsiella tarda (エドワジエラ・タルダ); assay: Test Example 1: in vitro antibacterial activity (MIC, Japanese Society of Chemotherapy method); format: cell-based; conditions: oxytetracycline hydrochloride-resistant strains; result in words
[2] = tested on: Edwardsiella tarda E08-18 strain (エドワジエラ・タルダ E08−18株); assay: Test Example 3: artificial infection treatment test (2) in red sea bream; format: in vivo; conditions: for mortality rate: red sea bream juveniles (27 g), 4.6×10^6 CFU/mL per fish i.p., to day 14 after infection, untreated control 95%
[3] = tested on: Edwardsiella tarda E08-18 strain (エドワジエラ・タルダ E08−18株); assay: Test Example 2: artificial infection treatment test (1) in red sea bream; format: in vivo; conditions: 40 mg (potency)/kg oral in feed, 6 days

Q: With `C[C@@H]1O[C@@H]1P(=O)(O)O` [ホスホマイシン] as the compound, how does the antibacterial activity [1] read?
A: 強い抗菌活性を示す

Q: What about the “recovery of feeding activity” value ([2]; red sea bream juveniles, 40 mg (potency)/kg oral in feed, 6 days, compared with oxytetracycline hydrochloride and untreated groups) of the same compound?
A: 塩酸オキシテトラサイクリンや無投薬の群よりも摂餌活性の回復が早まる

Q: And the “recovery of feeding activity” value ([3]; red sea bream juveniles, after bacterial inoculation)?
A: 摂餌活性の回復が早まる

Q: For `C[C@@H]1O[C@@H]1P(=O)(O)O` [ホスホマイシン・カルシウム, カルシウム塩], which mortality rate ([2]; 40 mg (potency)/kg oral in feed, 6 days) is on record?
A: 25%

Q: What about the mortality rate ([3]; red sea bream juveniles (29 g), 3.6×10^6 CFU/mL per fish i.p., to day 14 after infection, untreated control 95%) of the same compound?
A: 10%

Q: How did the mortality rate ([2]; 50 mg (potency)/kg oral in feed, 7 days) turn out when `CN(C)[C@@H]1C(=O)C(C(N)=O)=C(O)[C@@]2(O)C(=O)C3=C(O)c4c(O)cccc4[C@@](C)(O)[C@H]3[C@H](O)[C@@H]12.Cl` [塩酸オキシテトラサイクリン] was run?
A: 100%
